*1 amine or outer side, *2 acyl side, *3 side chain or, on linkers, in order; H or OH if unused. Where a SMILES comes first, the peptide text is derived from it. Bridges are numbered along the chain shown (N, C = ends). [ ]: non-standard residue; d: D form. The star is where a group is joined. hPhe(3-Cl-4-CF3) = N[C@@H](CCc1ccc(C(F)(F)F)c(Cl)c1)C(=O)O; NPrPhe(4-CF3) = CCCN[C@@H](Cc1ccc(C(F)(F)F)cc1)C(=O)O; NPrAsp = CCCN([C@@H](CC(=O)[*:3])C(=O)[*:2])[*:1]; NEtAsp = CCN([C@@H](CC(=O)[*:3])C(=O)[*:2])[*:1]; X30 = CCN([C@H](C(=O)[*:2])C1CCCC1)[*:1]; NMeGly(cPent) = CN[C@H](C(=O)O)C1CCCC1; NEtLeu = CCN[C@@H](CC(C)C)C(=O)O; NMeD = CN[C@@H](CC(=O)O)C(=O)O; NMeL = CN[C@@H](CC(C)C)C(=O)O; NMeNva = CCC[C@H](NC)C(=O)O; Morpholide = C1CN(*)CCO1; Ac4c = NC1(C(=O)O)CCC1; NPrGly = CCCNCC(=O)O; NEtG = CCNCC(=O)O; Sar = CNCC(=O)O
Columns and labels:
[1] = molecular target: GDP-bound NRAS wild-type protein (Homo sapiens, UniProt P01111); experiment: Binding to NRAS by surface plasmon resonance (SPR), KD and KD ratio to KRAS; conditions: ratio of the KD value with respect to GDP-bound NRAS wild-type protein to the KD value with respect to KRAS
GDP-bound NRAS wild-type protein, sequence (P01111 whole entry): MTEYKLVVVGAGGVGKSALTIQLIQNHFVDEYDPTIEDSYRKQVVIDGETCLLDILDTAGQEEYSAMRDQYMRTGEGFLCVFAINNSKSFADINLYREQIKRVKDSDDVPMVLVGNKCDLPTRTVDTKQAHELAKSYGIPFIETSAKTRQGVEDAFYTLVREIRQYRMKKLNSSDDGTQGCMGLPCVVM
Outline: (§1)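 Biotinylated GDP-bound RAS was captured at about 100–300 RU. Running buffer: HBS pH 7.4, 10 mM MgCl2, 10 µM GDP, 1 mM DTT, 0.01% Tween 20, 4% DMSO.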

[2] = tested on: human lung cancer strain NCI-H441; assay type: cell-based
Outline: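 Step one: dispense the test compound in serial DMSO dilutions. Step three: add the reagent and measure […].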

HRAS wild-type protein = HRAS wild-type protein (Homo sapiens, UniProt P01112); experiment: Binding to HRAS by surface plasmon resonance (SPR), KD and KD ratio to KRAS; conditions: ratio of the KD value with respect to HRAS wild-type protein to the KD value with respect to KRAS
HRAS wild-type protein, sequence (P01112 whole entry): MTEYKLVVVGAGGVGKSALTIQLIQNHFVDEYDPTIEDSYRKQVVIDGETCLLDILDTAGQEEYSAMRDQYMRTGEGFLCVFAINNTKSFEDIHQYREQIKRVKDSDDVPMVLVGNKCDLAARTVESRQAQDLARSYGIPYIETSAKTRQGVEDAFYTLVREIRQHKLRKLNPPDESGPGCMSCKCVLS
Outline: as §1

With CC[C@H](C)[C@@H]1NC(=O)[C@H](CC)N(C)C(=O)C[C@@H](C(=O)N(C)C)N(C)C(=O)[C@H](C2CCCC2)N(C)C(=O)C2(CC(C)(C)C2)NC(=O)[C@H](CC)N(C)C(=O)[C@H](CCc2cc(F)c(C(F)(F)F)c(F)c2)NC(=O)CN(C)C(=O)[C@H](Cc2ccc(C(F)(F)F)cc2)N2CC/C=C\C[C@@H](C2=O)N(C)C(=O)CN(C)C1=O [PP1935] the “NRAS /KRAS” value [1] was “A (a compound having 10 or more and less than 20 is denoted as A)”, the IC50 [2] was 13.1 nM and the “HRAS /KRAS” value (HRAS wild-type protein) was “A (a compound having 10 or more and less than 20 is denoted as A)”.
With CCC[C@H]1C(=O)N[C@@H]([C@@H](C)CC)C(=O)N(C)CC(=O)N(C)[C@H]2C/C=C\CCN(C2=O)[C@@H](Cc2ccc(C(F)(F)F)cc2)C(=O)N(C)CC(=O)N[C@@H](CCc2cc(F)c(C(F)(F)F)c(F)c2)C(=O)N(C)[C@@H](COC)C(=O)NC2(CC(C)(C)C2)C(=O)N(C)[C@@H](C2CCCC2)C(=O)N(C)[C@H](C(=O)N(C)C)CC(=O)N1C [PP1936] the “NRAS /KRAS” value [1] was “AA (a compound having 20 or more is denoted as AA)”, the IC50 [2] was 12.3 nM and the “HRAS /KRAS” value (HRAS wild-type protein) was “A (a compound having 10 or more and less than 20 is denoted as A)”.
For CCC[C@H]1C(=O)N[C@@H]([C@@H](C)CC)C(=O)N(C)CC(=O)N(C)[C@H]2C/C=C\CCN(C2=O)[C@@H](Cc2ccc(C(F)(F)F)cc2)C(=O)N(C)CC(=O)N[C@@H](CCc2cc(F)c(C(F)(F)F)c(F)c2)C(=O)N2C[C@H](OCC)C[C@H]2C(=O)NC2(CC(C)(C)C2)C(=O)N(C)[C@@H]([C@@H](C)CC)C(=O)N(C)[C@H](C(=O)N(C)C)CC(=O)N1C [PP1941], the “NRAS /KRAS” value [1] was “A (a compound having 10 or more and less than 20 is denoted as A)”, the IC50 [2] was 9.2 nM and the “HRAS /KRAS” value (HRAS wild-type protein) was “A (a compound having 10 or more and less than 20 is denoted as A)”.
With CCO[C@@H]1C[C@H]2C(=O)NC3(CC(C)(C)C3)C(=O)N(C)[C@@H](C3CCCCC3)C(=O)N(C)[C@H](C(=O)N(C)C)CC(=O)N(C)[C@@H](CC)C(=O)N[C@@H]([C@@H](C)CC)C(=O)N(C)CC(=O)N(C)[C@H]3C/C=C\CCN(C3=O)[C@@H](Cc3ccc(C(F)(F)F)cc3)C(=O)N(C)CC(=O)N[C@@H](CCc3cc(F)c(C(F)(F)F)c(F)c3)C(=O)N2C1 [PP1942] the “NRAS /KRAS” value [1] was “AA (a compound having 20 or more is denoted as AA)”, the IC50 [2] was 25.7 nM and the “HRAS /KRAS” value (HRAS wild-type protein) was “A (a compound having 10 or more and less than 20 is denoted as A)”.
CCC[C@H]1C(=O)N[C@@H]([C@@H](C)CC)C(=O)N(C)CC(=O)N(C)[C@H]2C/C=C\CCN(C2=O)[C@@H](Cc2ccc(C(F)(F)F)cc2)C(=O)N(C)CC(=O)N[C@@H](CCc2cc(F)c(C(F)(F)F)c(F)c2)C(=O)N2C[C@H](OCC)C[C@H]2C(=O)NC2(CC(C)(C)C2)C(=O)N(C)[C@@H](C2CCCC2)C(=O)N(C)[C@H](C(=O)N2CCC2)CC(=O)N1C [PP1943] was tested, and the “NRAS /KRAS” value [1] was “A (a compound having 10 or more and less than 20 is denoted as A)”, the IC50 [2] was 9.2 nM and the “HRAS /KRAS” value (HRAS wild-type protein) was “B (a compound having 3 or more and less than 10 is denoted as B)”.
In the case of CCO[C@@H]1C[C@H]2C(=O)NC3(CC(C)(C)C3)C(=O)N(C)[C@@H](C3CCCC3)C(=O)N(C)[C@H](C(=O)N3CCCC3)CC(=O)N(C)[C@@H](CC)C(=O)N[C@@H]([C@@H](C)CC)C(=O)N(C)CC(=O)N(C)[C@H]3C/C=C\CCN(C3=O)[C@@H](Cc3ccc(C(F)(F)F)cc3)C(=O)N(C)CC(=O)N[C@@H](CCc3cc(F)c(C(F)(F)F)c(F)c3)C(=O)N2C1 [PP1944], the “NRAS /KRAS” value [1] is reported as “A (a compound having 10 or more and less than 20 is denoted as A)”, the IC50 [2] is reported as 14.8 nM and the “HRAS /KRAS” value (HRAS wild-type protein) is reported as “A (a compound having 10 or more and less than 20 is denoted as A)”.
For CCO[C@@H]1C[C@H]2C(=O)NC3(CC(C)(C)C3)C(=O)N(C)[C@@H](C3CCCC3)C(=O)N(C)[C@H](C(=O)N3CCCCC3)CC(=O)N(C)[C@@H](CC)C(=O)N[C@@H]([C@@H](C)CC)C(=O)N(C)CC(=O)N(C)[C@H]3C/C=C\CCN(C3=O)[C@@H](Cc3ccc(C(F)(F)F)cc3)C(=O)N(C)CC(=O)N[C@@H](CCc3cc(F)c(C(F)(F)F)c(F)c3)C(=O)N2C1 [PP1945], the “NRAS /KRAS” value [1] was “AA (a compound having 20 or more is denoted as AA)”, the IC50 [2] was 33.8 nM and the “HRAS /KRAS” value (HRAS wild-type protein) was “A (a compound having 10 or more and less than 20 is denoted as A)”.
CCCN1C(=O)CN(C)C(=O)CN(C)C(=O)[C@H]([C@@H](C)CC)NC(=O)[C@H](CC(C)C)N(CC)C(=O)C[C@@H](C(=O)N2CCOCC2)N(C)C(=O)[C@H](C2CCCC2)N(C)C(=O)C2(CCC2)NC(=O)[C@@H]2CCCN2C(=O)[C@H](CCc2ccc(C(F)(F)F)c(Cl)c2)NC(=O)CN(C)C(=O)[C@@H]1Cc1ccc(C(F)(F)F)cc1 [PP1946] ([NEtLeu]I[Sar][Sar][NPrPhe(4-CF3)][Sar][hPhe(3-Cl-4-CF3)]P[Ac4c][NMeGly(cPent)][NMeD]-Morpholide; lactam N-11) was tested, and the “NRAS /KRAS” value [1] was “B (a compound having 3 or more and less than 10 is denoted as B)”, the IC50 [2] was 15.2 nM and the “HRAS /KRAS” value (HRAS wild-type protein) was “C (A compound having a KD ratio of 0.1 or more and less than 3 is denoted as C)”.
For CCC[C@H]1C(=O)N[C@@H]([C@@H](C)CC)C(=O)N(CCC)CC(=O)N(C)CC(=O)N(CCC)[C@@H](Cc2ccc(C(F)(F)F)cc2)C(=O)N(C)CC(=O)N[C@@H](CCc2ccc(C(F)(F)F)c(Cl)c2)C(=O)N2CCC[C@H]2C(=O)NC2(CCC2)C(=O)N(C)[C@@H](C2CCCC2)C(=O)N(C)[C@H](C(=O)N2CCOCC2)CC(=O)N1C [PP1947] ([NMeNva]I[NPrGly][Sar][NPrPhe(4-CF3)][Sar][hPhe(3-Cl-4-CF3)]P[Ac4c][NMeGly(cPent)][NMeD]-Morpholide; lactam N-11), the “NRAS /KRAS” value [1] was “B (a compound having 3 or more and less than 10 is denoted as B)”, the IC50 [2] was 22 nM and the “HRAS /KRAS” value (HRAS wild-type protein) was “B (a compound having 3 or more and less than 10 is denoted as B)”.
With CCCN1C(=O)CN(C)C(=O)CN(C)C(=O)[C@H]([C@@H](C)CC)NC(=O)[C@H](CC(C)C)N(C)C(=O)C[C@@H](C(=O)N2CCOCC2)N(C)C(=O)[C@H](C2CCCC2)N(C)C(=O)C2(CCC2)NC(=O)[C@@H]2CCCN2C(=O)[C@H](CCc2ccc(C(F)(F)F)c(Cl)c2)NC(=O)CN(CC)C(=O)[C@@H]1Cc1ccc(C(F)(F)F)cc1 [PP1950] ([NMeL]I[Sar][Sar][NPrPhe(4-CF3)][NEtG][hPhe(3-Cl-4-CF3)]P[Ac4c][NMeGly(cPent)][NMeD]-Morpholide; lactam N-11) the “NRAS /KRAS” value [1] was “B (a compound having 3 or more and less than 10 is denoted as B)”, the IC50 [2] was 32.5 nM and the “HRAS /KRAS” value (HRAS wild-type protein) was “C (A compound having a KD ratio of 0.1 or more and less than 3 is denoted as C)”.
For CCCN1C(=O)CN(C)C(=O)CN(C)C(=O)[C@H]([C@@H](C)CC)NC(=O)[C@H](CC(C)C)N(C)C(=O)C[C@@H](C(=O)N2CCOCC2)N(C)C(=O)[C@H](C2CCCC2)N(CC)C(=O)C2(CCC2)NC(=O)[C@@H]2CCCN2C(=O)[C@H](CCc2ccc(C(F)(F)F)c(Cl)c2)NC(=O)CN(C)C(=O)[C@@H]1Cc1ccc(C(F)(F)F)cc1 [PP1952] ([NMeL]I[Sar][Sar][NPrPhe(4-CF3)][Sar][hPhe(3-Cl-4-CF3)]P[Ac4c][X30][NMeD]-Morpholide; lactam N-11), the “NRAS /KRAS” value [1] was “B (a compound having 3 or more and less than 10 is denoted as B)”, the IC50 [2] was 14 nM and the “HRAS /KRAS” value (HRAS wild-type protein) was “B (a compound having 3 or more and less than 10 is denoted as B)”.
In the case of CCCN1C(=O)CN(C)C(=O)CN(C)C(=O)[C@H]([C@@H](C)CC)NC(=O)[C@H](CC(C)C)N(C)C(=O)C[C@@H](C(=O)N2CCOCC2)N(CC)C(=O)[C@H](C2CCCC2)N(C)C(=O)C2(CCC2)NC(=O)[C@@H]2CCCN2C(=O)[C@H](CCc2ccc(C(F)(F)F)c(Cl)c2)NC(=O)CN(C)C(=O)[C@@H]1Cc1ccc(C(F)(F)F)cc1 [PP1953] ([NMeL]I[Sar][Sar][NPrPhe(4-CF3)][Sar][hPhe(3-Cl-4-CF3)]P[Ac4c][NMeGly(cPent)][NEtAsp]-Morpholide; lactam N-11), the “NRAS /KRAS” value [1] is reported as “B (a compound having 3 or more and less than 10 is denoted as B)”, the IC50 [2] is reported as 8.7 nM and the “HRAS /KRAS” value (HRAS wild-type protein) is reported as “B (a compound having 3 or more and less than 10 is denoted as B)”.
With CCC[C@H]1C(=O)N[C@@H]([C@@H](C)CC)C(=O)N(C)CC(=O)N(C)CC(=O)N(CCC)[C@@H](Cc2ccc(C(F)(F)F)cc2)C(=O)N(C)CC(=O)N[C@@H](CCc2ccc(C(F)(F)F)c(Cl)c2)C(=O)N2CCC[C@H]2C(=O)NC2(CCC2)C(=O)N(C)[C@@H](C2CCCC2)C(=O)N(CCC)[C@H](C(=O)N2CCOCC2)CC(=O)N1C [PP1954] ([NMeNva]I[Sar][Sar][NPrPhe(4-CF3)][Sar][hPhe(3-Cl-4-CF3)]P[Ac4c][NMeGly(cPent)][NPrAsp]-Morpholide; lactam N-11) the “NRAS /KRAS” value [1] was “B (a compound having 3 or more and less than 10 is denoted as B)”, the IC50 [2] was 8.1 nM and the “HRAS /KRAS” value (HRAS wild-type protein) was “B (a compound having 3 or more and less than 10 is denoted as B)”.
